Assay results as given in a melting point compilation (Tetko et al.; mined from patent text by program, amines drawn as free bases though some values may be those of a salt).

| Structure (SMILES) | melting point [°C] |
| --- | --- |
| Oc1c2c(nn1-c1cc(C(F)(F)F)ccn1)CCc1ccccc1-2 | 161 to 162 |
| O=C(Nc1ccc(Oc2ccnc(NCCN3CCCCC3)n2)c2ccccc12)c1cc(F)cc(N2CCOCC2)c1 | 98 to 100 |
| Nc1cc(CO)ccc1Sc1nccnc1Cl | 148 to 150 |
| CC12CCC(S(=O)(=O)C(F)(F)F)=CC1=CCC1C2CCC2(C)C(C(=O)O)CCC12 (stereo unspecified) | 182 |
| O=C(O)c1cccc(-c2ccc(Cl)c(C(=O)NCC34CC5CC(CC(C5)C3)C4)c2)c1 | 255 to 257 |
| CCCCn1cnc2c1c(=O)n(CCCCC(C)=O)c(=O)n2C | 79 to 80 |
| Cn1cc(Br)nc(Nc2cnn(CCO[Si](C)(C)C(C)(C)C)c2)c1=O | 172 to 173 |
| COc1cc(Oc2cccc(C(F)(F)F)c2)nc(C(=O)NCc2ccccc2)c1 | 87 to 92 |
| CCC1(CCCCN2CCN(c3cccc4c3OCCO4)CC2)C(=O)Nc2cc(F)ccc21 (stereo unspecified) | 146 to 147 |
| CCCCCCCCNc1ccc(NCCCCCCCC)c2c1C(=O)c1ccccc1C2=O | 72 to 74 |
| Nc1nc2ccccc2c2c1ncn2CC1(O)CCCC1 | 254 to 255 |
| CC1(C)COC(c2cc(-c3ccncc3)n(-c3ccc(F)cc3)n2)OC1 | 150 to 151 |

Next, values leading:

| melting point [°C] | Structure (SMILES) |
| --- | --- |
| 123 to 135 | Cc1cccc(-c2[nH]c(C(C)C)nc2-c2cccc(-c3ccc(NC(=O)C(C)(C)O)cc3)c2)n1 |
| 120 to 123 | O=C(CN1CCC(Cc2ccc(F)cc2)CC1)Nc1ccc([N+](=O)[O-])cc1 |
| 278 | Cn1ncc2[nH]c3ccc(Cc4ccccc4Cl)cc3c(=O)c21 |
| 133 to 134 | Cc1cc(F)ccc1Nc1nc(N(C)c2ccccc2)c2cccc(OCCCN3CCOCC3)c2n1 |
| 87 to 100 | CC1CCCNC(=O)C1 (stereo unspecified) |
| 123 to 125 | CN(C)Cc1nc2cccnc2[nH]1 |
| 79 to 80 | CCOC(=O)c1sc(SC)c2c1CCC(C=O)=C2Cl |
| 206 to 209 | CC(C)NC(=O)Nc1ccnnc1 |
| 161 to 163 | COc1ccc(-c2ccc(N3CCCN(c4ccc(-c5ccc(OC)cc5OC)cn4)CC3)nc2)c(OC)c1 |
| 95 to 96 | CCOC(=O)c1cc2cc(N(C)C)ccc2s1 |
| 58 to 63 | CCS(=O)(=O)c1cccnc1S(=O)(=O)NC(C)(C)C |
| 70 to 80 | N=C(NCc1ccccc1)NN=Cc1c(Cl)cccc1Cl |
| 70 | O=C(O)Cc1ccc(SCCNC(=O)C2Cc3ccccc3N2S(=O)(=O)c2ccc(-c3cccc(C(F)(F)F)c3)cc2)c(Cl)c1 (stereo unspecified) |
| 92 to 97 | CC(C)C(C(=O)O)c1ccc(OC(F)(F)C(F)F)cc1 (stereo unspecified) |
